Experimental data reported in patent US20140322434A1, “METHODS FOR PRODUCING ELECTROPHOTOGRAPHIC PHOTOSENSITIVE MEMBER AND ORGANIC DEVICE EACH HAVING CHARGE TRANSPORTING LAYER” (CANON KABUSHIKI KAISHA, priority 2011, published 2014).
Like-named read-outs stand apart in the source and are kept apart here.

Columns and labels:
[1] = Solubility of second liquid in the first liquid at 25° C. and 1 atm; settings: for Solubility in first liquid: first liquid described in Table 1; for solubility in first solution: liquids of Comparative Examples 5 to 11
[2] = Solubility in water at 25° C. and 1 atm
Description: In the method for producing an electrophotographic photosensitive member of the present invention, the charge transporting substance and the binder resin are dissolved in the first liquid to prepare the first solution. […] Specific examples of the first liquid are shown in Table 1, but are not limited to the examples in Table 1.
Then, the second solution will be described.

[3] = second liquid, 25° C. and 1 atm
[4] = liquids of Comparative Examples 5 to 11, 25° C. and 1 atm

## C1CCOOC1 [Second liquid example (3), 1,2-dioxane]
[1]
  Solubility in first liquid: 5.0 mass % or

## Clc1ccccc1Cl [First liquid example (3), o-Dichlorobenzene]
[2]
  Solubility in water: 0.0 mass %

## COC(C)CCO (stereo not drawn) [Second liquid example (33), 3-methoxybutanol]
[1]
  Solubility in first liquid: 5.0 mass % or

## Clc1ccccc1 [First liquid example (4), Chlorobenzene]
[2]; first liquid, 25° C. and 1 atm
  Solubility in water: 0.1 mass %

## CC(=O)OC(C)C [Liquid (4), isopropyl acetate, reference compound]
[2]
  Solubility in water: 2.9 mass %

## COC(C)COC(C)CO (stereo not drawn) [Second liquid example (22), dipropylene glycol monomethyl ether]
[1]
  Solubility in first liquid: 5.0 mass % or

## CCCCOCC(C)O (stereo not drawn) [Second liquid example (13), propylene glycol n-butyl ether]
[1]
  Solubility in first liquid: 5.0 mass % or
[2]; [3]
  Solubility in water: 6.0 mass %

## CCOCCOCCO [Second liquid example (16), diethylene glycol monoethyl ether]
[1]
  Solubility in first liquid: 5.0 mass % or

## COCOC [Second liquid example (2), dimethoxymethane]
[1]
  Solubility in first liquid: 5.0 mass % or
[2]; [3]
  Solubility in water: 32.3 mass %

## OCCOCCOc1ccccc1 [Liquid (2), diethylene glycol monophenyl ether, reference compound]
[1]
  solubility in first solution: ≥ 5.0 mass %
[2]; [4]
  Solubility in water: 3.4 mass %

## CCCOCC(C)O (stereo not drawn) [Second liquid example (14), propylene glycol monopropyl ether]
[1]
  Solubility in first liquid: 5.0 mass % or

## Cc1ccccc1C [First liquid example (5), o-Xylene]
[2]; first liquid, 25° C. and 1 atm
  Solubility in water: 0.0 mass %

## CCOC(C)=O [Second liquid example (31), ethyl acetate]
[1]
  Solubility in first liquid: 5.0 mass % or

## COC(C)COC(C)COC(C)CO (stereo not drawn) [Second liquid example (23), tripropylene glycol monomethyl ether]
[1]
  Solubility in first liquid: 5.0 mass % or

## C1OCOCO1 [Second liquid example (6), 1,3,5-trioxane]
[1]
  Solubility in first liquid: 5.0 mass % or
[2]; [3]
  Solubility in water: 21.1 mass %

## CCCCOC(C)COC(C)COC(C)CO (stereo not drawn) [Liquid (5), tripropylene glycol n-butyl ether, reference compound]
[1]
  solubility in first solution: ≥ 5.0 mass %
[2]; [4]
  Solubility in water: 2.9 mass %

## CCc1ccccc1 [First liquid example (6), Ethylbenzene]
[2]; first liquid, 25° C. and 1 atm
  Solubility in water: 0.0 mass %

## COC(C)CCOC(C)=O (stereo not drawn) [Second liquid example (34), 3-methoxybutyl acetate]
[1]
  Solubility in first liquid: 5.0 mass % or

## C=CCOCCO [Second liquid example (20), ethylene glycol monoallyl ether]
[1]
  Solubility in first liquid: 5.0 mass % or

## CC(C)COCCO [Second liquid example (19), ethylene glycol monoisobutyl ether]
[1]
  Solubility in first liquid: 5.0 mass % or

## CCOCCOCCOC [Second liquid example (26), diethylene glycol methyl ethyl ether]
[1]
  Solubility in first liquid: 5.0 mass % or

## COCC(C)O (stereo not drawn) [Second liquid example (21), propylene glycol monomethyl ether]
[1]
  Solubility in first liquid: 5.0 mass % or

## CC(=O)OCC(C)OC(C)=O (stereo not drawn) [Second liquid example (29), propylene glycol diacetate]
[1]
  Solubility in first liquid: 5.0 mass % or

## COCCOCCOC [Second liquid example (11), diethylene glycol dimethyl ether]
[1]
  Solubility in first liquid: 5.0 mass % or

## CCCCOCC(C)O (stereo not drawn) [Second liquid example (24), propylene glycol monobutyl ether]
[1]
  Solubility in first liquid: 5.0 mass % or
[2]; [3]
  Solubility in water: 6.4 mass %

## CC(=O)OCCCCOC(C)=O [Liquid (6), 1,4-butanediol diacetate, reference compound]
[1]
  solubility in first solution: ≥ 5.0 mass %
[2]; [4]
  Solubility in water: 4.2 mass %

## COCC(C)OC(C)=O (stereo not drawn) [Second liquid example (25), propylene glycol monomethyl ether acetate]
[1]
  Solubility in first liquid: 5.0 mass % or
[2]; [3]
  Solubility in water: 20.5 mass %

## COCCOC [Second liquid example (12), ethylene glycol dimethyl ether]
[1]
  Solubility in first liquid: 5.0 mass % or

## CCOc1ccccc1 [First liquid example (7), Phenetole]
[2]; first liquid, 25° C. and 1 atm
  Solubility in water: 0.1 mass %

## CCOCCOCCOCC [Second liquid example (27), diethylene glycol diethyl ether]
[1]
  Solubility in first liquid: 5.0 mass % or

## C1COCOC1 [Second liquid example (4), 1,3-dioxane]
[1]
  Solubility in first liquid: 5.0 mass % or

## CCCC(C)=O [Second liquid example (8), 2-pentanone]
[1]
  Solubility in first liquid: 5.0 mass % or
[2]; [3]
  Solubility in water: 5.9 mass %

## COCC(C)OCC(C)OC (stereo not drawn) [Second liquid example (28), dipropylene glycol dimethyl ether]
[1]
  Solubility in first liquid: 5.0 mass % or
